Source: patent publication US9708318B2, “Bicyclic heterocycles as FGFR4 inhibitors” (Incyte Corporation, priority 2015, dated 2017)
Read-outs that look alike come from different tables or passages of the source.

Columns and labels:
FGFR3 enzyme = FGFR3 enzyme (Homo sapiens (Human), UniProt P22607); test: FGFR Enzymatic Assay (FRET peptide phosphorylation), FGFR3; assay type: biochemical; conditions: read-out: FGFR3 IC50
Method: (§1) The inhibitor potency of the exemplified compounds was measured in an enzyme assay that measures peptide phosphorylation using FRET measurements to detect product formation. Inhibitors were serially diluted in DMSO and a volume of 0.5 μL was transferred to the wells of a 384-well plate.
(§2) GraphPad prism3 was used to analyze the data.

FGFR2 = FGFR2 (Homo sapiens (Human), UniProt P21802); test: FGFR Enzymatic Assay (FRET peptide phosphorylation), FGFR2; assay type: biochemical
Sequence of FGFR2 (P21802 22-821): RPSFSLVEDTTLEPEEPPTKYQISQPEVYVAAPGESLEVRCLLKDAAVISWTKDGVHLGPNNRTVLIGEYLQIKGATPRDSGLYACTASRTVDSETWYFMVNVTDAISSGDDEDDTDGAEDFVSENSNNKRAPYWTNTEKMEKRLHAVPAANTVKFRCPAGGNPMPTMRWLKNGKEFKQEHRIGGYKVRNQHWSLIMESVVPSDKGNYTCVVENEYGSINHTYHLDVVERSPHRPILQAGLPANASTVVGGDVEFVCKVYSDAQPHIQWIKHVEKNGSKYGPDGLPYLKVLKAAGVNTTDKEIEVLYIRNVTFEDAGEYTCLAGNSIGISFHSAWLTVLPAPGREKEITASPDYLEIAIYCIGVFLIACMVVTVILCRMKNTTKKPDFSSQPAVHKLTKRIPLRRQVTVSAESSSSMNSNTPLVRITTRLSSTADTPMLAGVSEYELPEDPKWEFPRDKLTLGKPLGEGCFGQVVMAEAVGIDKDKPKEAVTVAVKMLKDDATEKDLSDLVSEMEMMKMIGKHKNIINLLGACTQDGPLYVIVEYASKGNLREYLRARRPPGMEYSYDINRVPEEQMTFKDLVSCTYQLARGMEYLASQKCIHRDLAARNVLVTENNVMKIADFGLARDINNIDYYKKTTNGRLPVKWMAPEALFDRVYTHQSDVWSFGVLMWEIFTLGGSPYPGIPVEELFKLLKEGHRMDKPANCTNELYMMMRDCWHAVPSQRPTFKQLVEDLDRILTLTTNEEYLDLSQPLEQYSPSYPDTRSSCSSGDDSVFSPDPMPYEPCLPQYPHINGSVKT
Method: as §1
(§3) The enzymes were purchased from Millipore or Invitrogen.
as §2

FGFR4 = FGFR4 (Homo sapiens (Human), UniProt P22455); test: FGFR Enzymatic Assay (FRET peptide phosphorylation), FGFR4; assay type: biochemical
Sequence of FGFR4 (P22455 22-802): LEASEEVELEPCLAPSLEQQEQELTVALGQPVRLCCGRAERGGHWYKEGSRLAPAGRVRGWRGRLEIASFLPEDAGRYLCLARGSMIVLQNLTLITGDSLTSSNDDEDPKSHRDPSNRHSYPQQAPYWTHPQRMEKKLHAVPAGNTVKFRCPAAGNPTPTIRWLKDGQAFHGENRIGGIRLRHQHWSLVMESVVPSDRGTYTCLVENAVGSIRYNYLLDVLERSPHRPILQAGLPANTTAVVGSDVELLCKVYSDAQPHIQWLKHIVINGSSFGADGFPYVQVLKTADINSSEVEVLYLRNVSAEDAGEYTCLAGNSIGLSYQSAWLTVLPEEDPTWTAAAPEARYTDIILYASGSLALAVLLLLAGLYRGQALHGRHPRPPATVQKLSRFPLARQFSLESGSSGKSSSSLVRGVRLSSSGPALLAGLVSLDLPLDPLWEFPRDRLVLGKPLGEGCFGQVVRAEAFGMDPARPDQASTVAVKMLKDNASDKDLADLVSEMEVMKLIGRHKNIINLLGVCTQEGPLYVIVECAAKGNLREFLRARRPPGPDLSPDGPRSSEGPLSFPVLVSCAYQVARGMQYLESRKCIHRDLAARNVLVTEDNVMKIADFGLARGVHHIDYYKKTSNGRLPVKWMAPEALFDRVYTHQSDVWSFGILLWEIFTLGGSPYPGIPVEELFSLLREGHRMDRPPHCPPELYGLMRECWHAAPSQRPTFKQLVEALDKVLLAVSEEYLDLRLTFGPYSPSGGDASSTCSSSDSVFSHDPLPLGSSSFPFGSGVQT
Method: as §1, §3, §2

FGFR1 = FGFR1 (Homo sapiens (Human), UniProt P11362); test: FGFR Enzymatic Assay (FRET peptide phosphorylation), FGFR1; conditions: FGFR1 IC50 (nM)
Sequence of FGFR1 (P11362 22-822): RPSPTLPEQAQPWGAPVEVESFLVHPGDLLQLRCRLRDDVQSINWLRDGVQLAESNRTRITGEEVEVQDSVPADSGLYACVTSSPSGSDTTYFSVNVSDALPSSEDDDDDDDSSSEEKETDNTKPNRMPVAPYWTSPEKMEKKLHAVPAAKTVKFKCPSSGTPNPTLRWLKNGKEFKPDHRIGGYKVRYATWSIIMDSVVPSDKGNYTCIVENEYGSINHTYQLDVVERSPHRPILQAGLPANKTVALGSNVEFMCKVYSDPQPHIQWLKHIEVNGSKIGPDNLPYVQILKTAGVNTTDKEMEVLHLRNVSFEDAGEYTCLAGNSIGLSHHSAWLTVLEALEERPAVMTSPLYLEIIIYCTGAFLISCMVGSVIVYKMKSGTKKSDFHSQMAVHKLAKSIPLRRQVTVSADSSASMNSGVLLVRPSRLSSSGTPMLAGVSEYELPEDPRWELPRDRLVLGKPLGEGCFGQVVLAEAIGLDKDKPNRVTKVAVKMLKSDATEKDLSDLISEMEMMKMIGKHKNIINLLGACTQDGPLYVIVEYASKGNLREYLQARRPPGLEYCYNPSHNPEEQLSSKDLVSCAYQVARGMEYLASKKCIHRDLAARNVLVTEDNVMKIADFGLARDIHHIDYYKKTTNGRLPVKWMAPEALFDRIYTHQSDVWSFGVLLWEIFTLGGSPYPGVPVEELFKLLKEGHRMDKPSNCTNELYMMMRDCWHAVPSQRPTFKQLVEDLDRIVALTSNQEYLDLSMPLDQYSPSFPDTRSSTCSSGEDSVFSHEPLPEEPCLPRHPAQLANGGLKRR

[1] = pre-incubated for 5 to 10 minutes

Sequence of FGFR3 enzyme (P22607 23-806): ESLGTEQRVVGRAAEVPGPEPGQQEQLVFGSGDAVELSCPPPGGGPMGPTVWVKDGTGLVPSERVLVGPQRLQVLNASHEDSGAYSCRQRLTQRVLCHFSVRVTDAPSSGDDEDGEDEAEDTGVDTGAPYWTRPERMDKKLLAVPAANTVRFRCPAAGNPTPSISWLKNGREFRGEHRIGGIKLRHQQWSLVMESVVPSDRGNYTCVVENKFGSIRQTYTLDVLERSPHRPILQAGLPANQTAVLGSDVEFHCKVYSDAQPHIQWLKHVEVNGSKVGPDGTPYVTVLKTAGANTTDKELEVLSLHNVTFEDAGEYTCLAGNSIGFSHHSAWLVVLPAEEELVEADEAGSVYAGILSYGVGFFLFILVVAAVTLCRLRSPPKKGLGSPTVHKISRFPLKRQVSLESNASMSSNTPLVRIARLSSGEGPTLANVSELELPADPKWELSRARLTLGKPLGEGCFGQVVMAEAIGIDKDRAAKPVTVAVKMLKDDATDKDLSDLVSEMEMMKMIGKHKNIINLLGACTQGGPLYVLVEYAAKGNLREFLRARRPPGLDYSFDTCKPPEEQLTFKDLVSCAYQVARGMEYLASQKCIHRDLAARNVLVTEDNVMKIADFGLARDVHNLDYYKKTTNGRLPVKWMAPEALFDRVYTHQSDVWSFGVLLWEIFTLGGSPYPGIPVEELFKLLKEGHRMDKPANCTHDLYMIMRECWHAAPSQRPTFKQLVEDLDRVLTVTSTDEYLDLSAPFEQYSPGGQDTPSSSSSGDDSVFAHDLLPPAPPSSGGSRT

Compound	IC50 (FGFR3 enzyme; pre-incubated for 4 hours)	IC50 (FGFR2; pre-incubated for 4 hours)	IC50 (FGFR1; pre-incubated for 4 hours)	further results
COc1cc(OC)c(F)c(N2Cc3cnc(-c4cccnc4)cc3C3(CC3)C2=O)c1F [Example 9, 2′-(2,6-difluoro-3,5-dimethoxyphenyl)-6′-(pyridin-3-yl)-1′H-spiro[cyclopropane-1,4′-[2,7]naphthyridin]-3′(2′H)-one]	0.01 to 0.03 µM	0.03 to 0.2 µM		IC50 (FGFR3 enzyme; [1]): 0.03 to 0.2 µM; IC50 (FGFR2; [1]): 0.01 to 0.03 µM; IC50 (FGFR4; [1]): 0.01 to 0.03 µM; IC50 (FGFR4; pre-incubated for 4 hours): 0.01 to 0.03 µM
COc1cc(OC)c(F)c(N2Cc3cnc(-c4cncc(NS(C)(=O)=O)c4)cc3C3(CC3)C2=O)c1F [Example 15, N-(5-(2′-(2,6-difluoro-3,5-dimethoxyphenyl)-3′-oxo-2′,3′-dihydro-1′H-spiro[cyclopropane-1,4′-[2,7]naphthyridine]-6′-yl)pyridin-3-yl)methanesulfonamide]	0.03 to 0.2 µM	0.03 to 0.2 µM		IC50 (FGFR3 enzyme; [1]): 0.03 to 0.2 µM; IC50 (FGFR2; [1]): 0.03 to 0.2 µM; IC50 (FGFR4; [1]): < 0.01 µM; IC50 (FGFR4; pre-incubated for 4 hours): < 0.01 µM
COc1cc(OC)c(F)c(N2Cc3cnc(-c4cn(C)nc4C)cc3N(CC3CCOCC3)C2=O)c1F [Example 37, 3-(2,6-difluoro-3,5-dimethoxyphenyl)-7-(1,3-dimethyl-1H-pyrazol-4-yl)-1-((tetrahydro-2H-pyran-4-yl)methyl)-3,4-dihydropyrido[4,3-d]pyrimidin-2(1H)-one]	< 0.01 µM	< 0.01 µM	10 to 30 nM	
CCN1C(=O)N(c2c(F)c(OC)cc(OC)c2F)Cc2cnc(-c3cn(Cc4cccnc4)nc3C)cc21 [Example 50, 3-(2,6-difluoro-3,5-dimethoxyphenyl)-1-ethyl-7-(3-methyl-1-(pyridin-3-ylmethyl)-1H-pyrazol-4-yl)-3,4-dihydropyrido[4,3-d]pyrimidin-2(1H)-one]			30 to 200 nM	
COc1cc(OC)c(F)c(N2Cc3cnc(-c4cn(CCN5CCOCC5)nc4C)cc3C3(CC3)C2=O)c1F [Example 52, 2′-(2,6-difluoro-3,5-dimethoxyphenyl)-6′-(3-methyl-1-(2-morpholinoethyl)-1H-pyrazol-4-yl)-1′H-spiro[cyclopropane-1,4′-[2,7]naphthyridin]-3′(2′H)-one]	< 0.01 µM	0.01 to 0.03 µM	30 to 200 nM	
COc1cc(OC)c(F)c(N2Cc3cnc(-c4cn(C)nc4C)cc3N(c3ccc4c(c3)C(=O)N(C)C4)C2=O)c1F [Example 120, 3-(2,6-difluoro-3,5-dimethoxyphenyl)-7-(1,3-dimethyl-1H-pyrazol-4-yl)-1-(2-methyl-3-oxoisoindolin-5-yl)-3,4-dihydropyrido[4,3-d]pyrimidin-2(1H)-one]				IC50 (FGFR3 enzyme; [1]): 0.01 to 0.03 µM; IC50 (FGFR2; [1]): 0.01 to 0.03 µM
COc1cc(OC)c(F)c(N2Cc3cnc(-c4ccn(C)n4)cc3N(c3ccc(C#N)cc3)C2=O)c1F [Example 142, 4-(3-(2,6-difluoro-3,5-dimethoxyphenyl)-7-(1-methyl-1H-pyrazol-3-yl)-2-oxo-3,4-dihydropyrido[4,3-d]pyrimidin-1(2H)-yl)benzonitrile]				IC50 (FGFR3 enzyme; [1]): 0.01 to 0.03 µM; IC50 (FGFR2; [1]): 0.03 to 0.2 µM
COc1cc(OC)c(F)c(N2Cc3cnc(-c4cnn(C)c4)cc3N(c3ccc(C#N)cc3)C2=O)c1F [Example 144, 4-(3-(2,6-difluoro-3,5-dimethoxyphenyl)-7-(1-methyl-1H-pyrazol-4-yl)-2-oxo-3,4-dihydropyrido[4,3-d]pyrimidin-1(2H)-yl)benzonitrile]				IC50 (FGFR3 enzyme; [1]): 0.01 to 0.03 µM; IC50 (FGFR2; [1]): 0.01 to 0.03 µM

Now from value to molecule, other results behind:

IC50 (FGFR3 enzyme; pre-incubated for 4 hours)	IC50 (FGFR2; pre-incubated for 4 hours)	IC50 (FGFR1; pre-incubated for 4 hours)	Compound	further results
		10 to 30 nM	COc1cc(OC)c(F)c(N2Cc3cnc(-c4cnn(C5CN(S(C)(=O)=O)C5)c4)cc3C3(CC3)C2=O)c1F [Example 55, 2′-(2,6-difluoro-3,5-dimethoxyphenyl)-6′-(1-(1-(methylsulfonyl)azetidin-3-yl)-1H-pyrazol-4-yl)-1′H-spiro[cyclopropane-1,4′-[2,7]naphthyridin]-3′(2′H)-one]	
< 0.01 µM			COc1cc(OC)c(F)c(N2Cc3cnc(-c4cn(C)nc4C)cc3N(c3cccc(C#N)c3)C2=O)c1F [Example 60, 3-(3-(2,6-difluoro-3,5-dimethoxyphenyl)-7-(1,3-dimethyl-1H-pyrazol-4-yl)-2-oxo-3,4-dihydropyrido[4,3-d]pyrimidin-1(2H)-yl)benzonitrile]	
